Target: PDE4D2 (Homo sapiens, UniProt Q08499)
Assay: PDE4D2 assay
Format: biochemical
Settings: read-out: PDE4D2 (IC50); human recombinant PDE4D2, catalytic domain

Sequence of PDE4D2 (Q08499 381-740): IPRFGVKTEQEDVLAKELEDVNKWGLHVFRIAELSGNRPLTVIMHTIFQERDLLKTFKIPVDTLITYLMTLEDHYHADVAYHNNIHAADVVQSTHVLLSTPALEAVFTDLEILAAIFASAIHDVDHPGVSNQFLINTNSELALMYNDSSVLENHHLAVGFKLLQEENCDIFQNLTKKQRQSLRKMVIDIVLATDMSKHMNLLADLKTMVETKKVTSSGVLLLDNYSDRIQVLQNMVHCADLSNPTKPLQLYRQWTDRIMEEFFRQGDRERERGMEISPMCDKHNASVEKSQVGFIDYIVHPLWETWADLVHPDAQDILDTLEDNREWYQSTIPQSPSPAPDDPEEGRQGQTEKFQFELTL

Row | IC50 [µM] | Compound
1 | 0.24 ± 0.04 | OCc1ccc2c(c1C#Cc1ccc(O)cc1)C(c1ccc(O)cc1)(c1ccc(O)cc1)c1cc(O)ccc1-2 [Compound 3, selaginpulvilin A]
2 | 0.14 ± 0.016 | Cc1ccc(-c2ccc(O)cc2)c(C(=C2C=CC(=O)C=C2)c2ccc(O)cc2)c1C#Cc1ccc(O)cc1 [Compound 8, selaginellin B]
